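96-well plates; 48 h exposure; 5 concentrations. Endpoints by linear interpolation between flanking doses. Not reached: highest tested concentration assigned. GI50: concentration for 50% inhibition of growth.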 Active and inactive are the calls of the source. Rule as the data show it: active = GI50 up to about 1.1 µM and inactive = higher.
Assays:
Experiment in all cases: growth of human tumour cells (NCI), 48 h
OVCAR-8 = tested on: OVCAR-8
SK-OV-3 = tested on: SK-OV-3
MOLT-4 = tested on: MOLT-4
COLO 205 = tested on: COLO 205
SW-620 = tested on: SW-620
SNB-75 = tested on: SNB-75
NCI-H226 = tested on: NCI-H226
M14 = tested on: M14
RPMI-8226 = tested on: RPMI-8226
SR = tested on: SR
EKVX = tested on: EKVX
OVCAR-4 = tested on: OVCAR-4
NCI-H23 = tested on: NCI-H23
SF-295 = tested on: SF-295
IGROV-1 = tested on: IGROV-1
SNB-19 = tested on: SNB-19
HCT-116 = tested on: HCT-116
HOP-62 = tested on: HOP-62
NCI/ADR-RES = tested on: NCI/ADR-RES
PC-3 = tested on: PC-3

Measured: GI50

COc1ccc(OC)c(CCc2ccccc2CC(=O)O)c1
inactive: OVCAR-8 > 100 µM | SK-OV-3 > 100 µM | MOLT-4 > 100 µM | COLO 205 > 100 µM | SW-620 > 100 µM | SNB-75 35.5 µM | NCI-H226 > 100 µM | M14 > 100 µM | RPMI-8226 > 100 µM | SR > 100 µM | EKVX > 100 µM | OVCAR-4 > 100 µM | NCI-H23 > 100 µM | SF-295 > 100 µM | IGROV-1 > 100 µM | SNB-19 > 100 µM | HCT-116 > 100 µM

CCN(CC)c1ccc2c(c1)N=C1N=CC=CN1C2(c1ccc(N(C)C)cc1)c1ccc(N(C)C)cc1
inactive: OVCAR-8 4.19 µM | SK-OV-3 2.61 µM | MOLT-4 2.47 µM | COLO 205 2.36 µM | SNB-75 11.6 µM | NCI-H226 10.8 µM | M14 3.32 µM | RPMI-8226 2.9 µM | SR 3.61 µM | EKVX 9.73 µM | HOP-62 10.9 µM | NCI-H23 6.95 µM | SF-295 3.64 µM | IGROV-1 10.4 µM | SNB-19 11.4 µM | HCT-116 3.85 µM

O=c1cc(-c2ccccc2)oc2cc(O)cc(O)c12 [CHRYSIN]
inactive: SK-OV-3 27.9 µM | MOLT-4 18.3 µM | COLO 205 18.5 µM | SNB-75 10.3 µM | NCI-H226 20.6 µM | M14 33 µM | RPMI-8226 16 µM | SR 23 µM | EKVX 23.1 µM | OVCAR-4 29.8 µM | HOP-62 31.4 µM | NCI-H23 20.9 µM | SF-295 14.9 µM | IGROV-1 > 10 µM | SNB-19 18.5 µM | HCT-116 15.2 µM

COC(=O)c1ccccc1/N=C/c1ccc(N(CCC#N)S(=O)(=O)c2ccccc2)cc1
inactive: OVCAR-8 > 100 µM | SK-OV-3 > 100 µM | MOLT-4 > 100 µM | COLO 205 > 100 µM | SW-620 > 100 µM | SNB-75 > 100 µM | NCI-H226 > 100 µM | M14 > 100 µM | RPMI-8226 > 100 µM | SR > 100 µM | EKVX > 100 µM | OVCAR-4 > 100 µM | HOP-62 > 100 µM | NCI-H23 > 100 µM | SF-295 > 100 µM | IGROV-1 > 100 µM | SNB-19 > 100 µM | HCT-116 > 100 µM

CN1C(=O)C(Cl)(C(Cl)(Cl)S(=O)(=O)O)C(=O)c2ccccc21.c1ccncc1 (stereo not drawn)
inactive: OVCAR-8 > 100 µM | SK-OV-3 > 100 µM | MOLT-4 > 100 µM | COLO 205 > 100 µM | SW-620 > 100 µM | SNB-75 54.2 µM | NCI-H226 33.7 µM | M14 > 100 µM | RPMI-8226 > 100 µM | SR > 100 µM | EKVX > 100 µM | OVCAR-4 > 100 µM | HOP-62 > 100 µM | NCI-H23 > 100 µM | SF-295 > 100 µM | IGROV-1 > 100 µM | SNB-19 > 100 µM | HCT-116 > 100 µM

CC1=CC(=O)C[C@]2(C)[C@@H](O)CC(C(C)CO)C[C@@H]12 (stereo partly drawn)
inactive: OVCAR-8 > 100 µM | NCI/ADR-RES > 100 µM | SK-OV-3 > 100 µM | MOLT-4 > 100 µM | COLO 205 > 100 µM | SW-620 > 100 µM | SNB-75 > 100 µM | NCI-H226 > 100 µM | M14 > 100 µM | EKVX > 100 µM | OVCAR-4 > 100 µM | HOP-62 > 100 µM | NCI-H23 > 100 µM | SF-295 > 100 µM | IGROV-1 > 100 µM | SNB-19 > 100 µM | HCT-116 > 100 µM

COC[C@@H](/N=C/N1CCc2cc(OC)c(OC)cc2C1)C(C)(C)C
inactive: OVCAR-8 > 100 µM | SK-OV-3 > 100 µM | MOLT-4 > 100 µM | COLO 205 > 100 µM | SW-620 > 100 µM | SNB-75 > 100 µM | NCI-H226 > 100 µM | M14 > 100 µM | RPMI-8226 > 100 µM | SR > 100 µM | EKVX > 100 µM | OVCAR-4 > 100 µM | HOP-62 > 100 µM | NCI-H23 > 100 µM | SF-295 > 100 µM | IGROV-1 > 100 µM | SNB-19 > 100 µM | HCT-116 > 100 µM

COC(=O)C1=C(c2ccc(OC)c(OC)c2)OC(c2ccc(OC)c(OC)c2)C1 (stereo not drawn)
inactive: OVCAR-8 29.5 µM | SK-OV-3 32.6 µM | MOLT-4 8.17 µM | COLO 205 17.1 µM | SW-620 35.3 µM | SNB-75 41.4 µM | NCI-H226 37 µM | M14 38.7 µM | RPMI-8226 37.6 µM | SR 18.5 µM | EKVX 39.7 µM | OVCAR-4 27.9 µM | HOP-62 59.4 µM | NCI-H23 48.5 µM | SF-295 27.6 µM | IGROV-1 25.1 µM | HCT-116 27.3 µM

O=[N+]([O-])C(C(Cl)=C(Cl)Cl)=C(N1CCOCC1)N1CCOCC1
inactive: OVCAR-8 > 100 µM | SK-OV-3 > 100 µM | MOLT-4 63.2 µM | COLO 205 > 100 µM | SNB-75 1.14 µM | NCI-H226 > 100 µM | M14 > 100 µM | RPMI-8226 > 100 µM | EKVX > 100 µM | OVCAR-4 > 100 µM | HOP-62 > 100 µM | NCI-H23 > 100 µM | SF-295 > 100 µM | PC-3 > 100 µM | IGROV-1 > 100 µM | SNB-19 > 100 µM | HCT-116 > 100 µM

COc1cc2c(c(OC)c1OC)-c1ccc(SC)c(=O)cc1C(CC(=O)Oc1cccc(F)c1)C2 (stereo not drawn)
inactive: EKVX 2.62 µM | OVCAR-4 2.05 µM
active: OVCAR-8 0.337 µM | SK-OV-3 0.0385 µM | MOLT-4 0.444 µM | COLO 205 0.153 µM | SW-620 0.112 µM | SNB-75 0.138 µM | NCI-H226 0.184 µM | M14 0.242 µM | RPMI-8226 0.165 µM | SR 0.0542 µM | HOP-62 0.685 µM | NCI-H23 0.259 µM | SF-295 0.075 µM | IGROV-1 0.787 µM | SNB-19 0.667 µM | HCT-116 0.321 µM

Cc1cc(O)nc(NNC(C#N)c2ccccc2O)n1 (stereo not drawn)
inactive: OVCAR-8 35.7 µM | SK-OV-3 39.4 µM | MOLT-4 24.6 µM | COLO 205 31 µM | SW-620 44.6 µM | SNB-75 31.5 µM | NCI-H226 31.1 µM | RPMI-8226 22 µM | SR 4.3 µM | OVCAR-4 15.5 µM | HOP-62 31.3 µM | NCI-H23 22.7 µM | SF-295 38.4 µM | IGROV-1 21 µM | HCT-116 19.3 µM

CNS(=O)(=O)NNS(=O)(=O)c1ccc2ccccc2c1
inactive: OVCAR-8 > 100 µM | SK-OV-3 > 100 µM | MOLT-4 > 100 µM | COLO 205 > 100 µM | SW-620 > 100 µM | SNB-75 > 100 µM | NCI-H226 > 100 µM | M14 > 100 µM | RPMI-8226 > 100 µM | SR 80.2 µM | EKVX > 100 µM | OVCAR-4 > 100 µM | HOP-62 > 100 µM | NCI-H23 > 100 µM | SF-295 > 100 µM | IGROV-1 > 100 µM | SNB-19 > 100 µM | HCT-116 > 100 µM

CC(C)C(Nc1c2ccccc2nc2ccccc12)C(=O)O (stereo not drawn)
inactive: OVCAR-8 > 100 µM | SK-OV-3 > 100 µM | MOLT-4 38.7 µM | COLO 205 70.1 µM | SW-620 > 100 µM | SNB-75 > 100 µM | NCI-H226 > 100 µM | M14 > 100 µM | RPMI-8226 32.5 µM | SR 46.5 µM | EKVX 67.8 µM | OVCAR-4 20.7 µM | NCI-H23 > 100 µM | SF-295 > 100 µM | IGROV-1 > 100 µM | SNB-19 > 100 µM | HCT-116 43.3 µM

COc1ccc(/C=N/N=C(\N)NO)cc1OC
inactive: OVCAR-8 38.4 µM | SK-OV-3 45.1 µM | MOLT-4 > 100 µM | COLO 205 37.5 µM | SW-620 65.2 µM | SNB-75 42.9 µM | NCI-H226 28.1 µM | M14 27.9 µM | RPMI-8226 > 100 µM | SR 24.9 µM | EKVX 26.2 µM | OVCAR-4 99.1 µM | HOP-62 31.9 µM | NCI-H23 > 100 µM | SF-295 46.9 µM | IGROV-1 33.9 µM | SNB-19 > 100 µM | HCT-116 42.8 µM

CS(=O)(=O)c1ccc(COP(N)(=O)N(CCCl)CCCl)cc1 (stereo not drawn)
inactive: OVCAR-8 > 100 µM | SK-OV-3 > 100 µM | MOLT-4 > 100 µM | COLO 205 > 100 µM | SW-620 > 100 µM | SNB-75 > 100 µM | NCI-H226 > 100 µM | M14 > 100 µM | RPMI-8226 > 100 µM | SR > 100 µM | OVCAR-4 > 100 µM | HOP-62 > 100 µM | NCI-H23 > 100 µM | SF-295 > 100 µM | IGROV-1 > 100 µM | SNB-19 > 100 µM | HCT-116 > 100 µM

O=C(O)C(C(C(=O)O)P(=O)(O)O)P(=O)(O)O (stereo not drawn)
inactive: OVCAR-8 > 100 µM | SK-OV-3 > 100 µM | MOLT-4 > 100 µM | COLO 205 > 100 µM | SW-620 > 100 µM | SNB-75 > 100 µM | NCI-H226 > 100 µM | M14 > 100 µM | RPMI-8226 > 100 µM | SR > 100 µM | EKVX > 100 µM | OVCAR-4 > 100 µM | PC-3 > 100 µM | IGROV-1 > 100 µM | SNB-19 > 100 µM | HCT-116 > 100 µM

Reference: ChEMBL document CHEMBL1201862, “PubChem BioAssay data set” (2004)
